Read-outs that look alike come from different tables or passages of the source.
Experiments:
Solubility observation = format: physicochemical; details: cell media / DMSO
[1] = test system: NRK (normal rat kidney epithelial) cells; assay: Cytotoxicity; format: cell-based; details: for EC50: ±SEM; for Selectivity towards leukemic cells compared with NRK cells (factor): MOLM-13 vs NRK
MOLM-13 human AML cells = details: ref Viktorsson et al.[26], cited from earlier work
[2] = read-out: EC50 (μM) NRK 2% O2, 2% O2, 24 h exposure
[3] = read-out: EC50 (μM) MOLM-13 2% O2, 2% O2, ±SEM
[4] = read-out: EC50 (μM) MOLM-13 19% O2, 19% O2, ±SEM
[5] = read-out: EC50 (μM) NRK 19% O2, 19% O2, 24 h exposure

Row | SMILES | EC50 [1, 2] [µM] | EC50 (MOLM-13 human AML cells; [3]) [µM] | EC50 (MOLM-13 human AML cells; [4]) [µM] | other results
1 | [O-][n+]1c2cc3ccccc3cc2[n+]([O-])c2c(O)cccc21 [Compound 45] | – | – | – | Solubility (Solubility observation): practically insoluble
2 | [O-][n+]1c2cccc(O)c2[n+]([O-])c2cccc(O)c21 [Compound 3, 1,6-dihydroxyphenazine 5,10-dioxide] | > 50 | 0.79 ± 0.1 | 2 ± 0.07 | –
3 | Nc1n[n+]([O-])c2ccccc2[n+]1[O-] [Compound 10, 3-amino-1,2,4-benzotriazine 1,4-dioxide] | – | 22 ± 2 | 95 ± 8 | EC50 [1, 5]: > 100 µM
4 | CCOC(=O)Oc1cccc2c1[n+]([O-])c1cccc(OC(=O)OCC)c1[n+]2[O-] [Compound 14] | > 25 | – | – | –
5 | COc1cccc2c1[n+]([O-])c1cccc(O)c1[n+]2[O-] [Compound 4, 1-hydroxy-6-methoxyphenazine 5,10-dioxide] | – | 0.77 ± 0.13 | 1.4 ± 0.3 | Selectivity towards leukemic cells compared with NRK cells (factor) ([1]; hypoxic conditions (2% O2)): around 100
6 | CCOC(=O)COc1cccc2c1[n+]([O-])c1cc(C)c(C)cc1[n+]2[O-] [Compound 48] | > 100 | – | – | EC50 [1, 5]: 140 ± 2 µM
7 | CN1CCN(C(=O)Oc2cccc3c2[n+]([O-])c2cc(Cl)c(Cl)cc2[n+]3[O-])CC1 [Compound 54] | – | – | – | Selectivity towards leukemic cells compared with NRK cells (factor) ([1]; 19% O2): more than 30
8 | [O-][n+]1c2ccccc2[n+]([O-])c2c(O)cccc21 [Compound 21, 1-Hydroxyphenazine 5,10-dioxide] | > 100 | – | – | –
9 | CCOC(=O)COc1cccc2c1[n+]([O-])c1cccc(O)c1[n+]2[O-] [Compound 7, 1-hydroxy-6-(2-ethoxy-2-oxoethoxy) phenazine 5,10-dioxide] | – | 0.49 ± 0.12 | 0.57 ± 0.06 | –
10 | Cc1cc2c(cc1C)[n+]([O-])c1c(O)cccc1[n+]2[O-] [Compound 44, 7,8-Dimethyl-1-hydroxyphenazine 5,10-dioxide] | > 50 | – | – | –
